A word on the IC50: it is the concentration that inhibits the measured activity by half. Higher therefore signals a need for much substance.

Test [1] deals with Aβtotal. The test is described as follows: Screening for γ-secretase-modulating activity: Aβtotal in supernatant of SKNBE2 cells carrying hAPP 695 wild type (Alphalisa). The class given is cell-based, human. As to conditions: overnight incubation, Alphalisa on supernatant. The essentials: (§1)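 SKNBE2 human neuroblastoma cells expressing wild-type hAPP 695 (10^4/well) were incubated overnight at 37 °C, 5% CO2 with compound at several concentrations. Supernatant Aβ42 and Aβtotal measured by AlphaLISA sandwich immunoassays; IC50 from 4-parameter fit of percent of untreated control versus log concentration.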
Background: In Alpha technology, singlet oxygen from a donor bead excites a nearby acceptor bead.

Test [2] concerns Aβ42. Nature of the test: In vivo efficacy B-1a: brain soluble Aβ42 in non-transgenic rodents, ELISA. The arrangement: species or system mouse. The conditions noted are these: dose 30 mg/kg oral dosing, brain soluble fraction, untreated animals (Ctrl) set at 100; for response vs control in vivo at 30 mg/kg: Mus musculus, po, read-out: Aβ42 (% vs Ctrl)_Mean; for Aβ42 (% vs Ctrl)_Mean: 30 mg/kg. An excerpt:
(§2) To determine whether acute administration of an Aβ42 lowering agent would reduce Aβ42 levels in vivo, non-transgenic rodents, e.g. mice or rats were used. Animals treated with the Aβ42 lowering agent were examined and compared to those untreated or treated with vehicle and brain levels of soluble Aβ42 and total Aβ were quantitated by standard techniques, for example, using ELISA. Treatment periods varied from hours (h) to days and were adjusted based on the results of the Aβ42 lowering once a time course of onset of effect could be established.
(§3) A typical protocol for measuring Aβ42 lowering in vivo is shown but it is only one of many variations that could be used to optimize the levels of detectable Aβ. For example, Aβ42 lowering compounds were formulated in 20% of Captisol® (a sulfobutyl ether of β-cyclodextrin) in water or 20% hydroxypropyl β cyclodextrin. The Aβ42 lowering agents were administered as a single oral dose or by any acceptable route of administration to overnight fasted animals. After 4 h, the animals were sacrificed and Aβ42 levels were analysed.
(§4) Blood was collected by decapitation and exsanguinations in EDTA-treated collection tubes. Blood was centrifuged at 1900 g for 10 minutes (min) at 4° C. and the plasma recovered and flash frozen for later analysis. The brain was removed from the cranium and hindbrain. The cerebellum was removed and the left and right hemisphere were separated. The left hemisphere was stored at −18° C. for quantitative analysis of test compound levels. The right hemisphere was rinsed with phosphate-buffered saline (PBS) buffer and immediately frozen on dry ice and stored at −80° C. until homogenization for biochemical assays.
(§5) Mouse brains from non-transgenic animals were resuspended in 8 volumes of 0.4% DEA (diethylamine)/50 mM NaCl containing protease inhibitors (Roche-11873580001 or 04693159001) per gram of tissue, e.g. for 0.158 g brain, add 1.264 mL of 0.4% DEA. All samples were homogenized in the FastPrep-24 system (MP Biomedicals) using lysing matrix D (MPBio #6913-100) at 6 m/s for 20 seconds. Homogenates were centrifuged at 20800×g for 5 min and supernatants collected. Supernatants were centrifuged at 221.300×g for 50 min. The resulting high speed supernatants were then transferred to fresh eppendorf tubes. Nine parts of supernatant were neutralized with 1 part 0.5 M Tris-HCl pH 6.8 and used to quantify Aβtotal and Aβ42.
(§6) To quantify the amount of Aβtotal and Aβ42 in the soluble fraction of the brain homogenates, Enzyme-Linked-Immunosorbent-Assays were used. Briefly, the standards (a dilution of synthetic Aβ1-40 and Aβ1-42, Bachem) were prepared in 1.5 mL Eppendorf tube in Ultraculture, with final concentrations ranging from 10000 to 0.3 pg/mL. The samples and standards were co-incubated with HRPO-labelled N-terminal antibody JRF/rAμ/2 for Aβ42 detection and with the biotinylated mid-domain antibody 4G8 for Aβtotal detection. 50 μl of conjugate/sample or conjugate/standards mixtures were then added to the antibody-coated plate (the capture antibodies selectively recognize the C-terminal end of Aβ42, antibody JRF/cAβ42/26, for Aβ42 detection and the N-terminus of AB, antibody JRF/rAβ/2, for Aβtotal detection). The plate was allowed to incubate overnight at 4° C. in order to allow formation of the antibody-amyloid complex. Following this incubation and subsequent wash steps the ELISA for Aβ42 quantification was finished by addition of Quanta Blu fluorogenic peroxidase substrate according to the manufacturer's instructions (Pierce Corp., Rockford, Ill.). A reading was performed after 10 to 15 min (excitation 320 nm/emission 420 nm).
In this model a Aβ42 lowering compared to untreated animals would be advantageous, in particular a Aβ42 lowering with at least 10%, more in particular a Aβ42 lowering with at least 20%.
The results are shown in Table 4 (dose 30 mg/kg oral dosing) (value for untreated animals as control (Ctrl) was set at 100): […]

The test system of test [3] is Aβ42. Nature of the test: Screening for γ-secretase-modulating activity: Aβ42 in supernatant of SKNBE2 cells carrying hAPP 695 wild type (Alphalisa). The class given is cell-based, human. As to conditions: overnight incubation, Alphalisa on supernatant. The essentials:
as §1

For test [4], the system named is Aβtotal. Nature of the test: In vivo efficacy B-1a/B-2a: brain soluble Aβtotal in non-transgenic rodents, ELISA. The arrangement: species or system mouse. The conditions noted are these: dose 30 mg/kg oral dosing, brain soluble fraction, untreated animals (Ctrl) set at 100; for response vs control in vivo at 30 mg/kg: Mus musculus, po, 4 h, read-out: Aβtotal (% vs Ctrl)_Mean; for Aβtotal (% vs Ctrl)_Mean: 30 mg/kg.
Description: as §2, §3, §4, §5, §6
For Aβtotal detection, a Streptavidine-Peroxidase-Conjugate was added, followed 60 min later by an additional wash step and addition of Quanta Blu fluorogenic peroxidase substrate according to the manufacturer's instructions (Pierce Corp., Rockford, Ill.). A reading was performed after 10 to 15 min (excitation 320 nm/emission 420 nm). […]
(ELISA stands for enzyme-linked immunosorbent assay.)

[5] abbreviates: Homo sapiens, SKNBE2, SKNBE2 human neuroblastoma cells carrying hAPP 695 wild type.
[6] abbreviates: SKNBE2 human neuroblastoma cells carrying hAPP 695 wild type.

Bounds are passed on as bounds.

Turning to `COc1c(C#N)ccc2[nH]c(-c3nc4n(n3)CCOC4c3ccccc3C(F)(F)F)cc12` (stereo not shown) [Compound 55, 2-[5,6-dihydro-8-[2-(trifluoromethyl)phenyl]-8H-[1,2,4]triazolo[5,1-c][1,4]oxazin-2-yl]-4-methoxy-1H-indole-5-carbonitrile], the IC50 in the test with Aβtotal [1] (setting [5]) was over 10000 nM; with Aβ42 [3] (setting [5]), 72 nM. Moreover, the response vs control in vivo at 30 mg/kg with Aβ42 [2] is 55%; in the test on Aβtotal [4], 111%.

On to `COc1c(C#N)ccc2[nH]c(-c3nc4n(n3)CCCC4c3ccc(F)cc3C)cc12` (stereo not shown) [Compound 59, 2-[8-(4-fluoro-2-methylphenyl)-5,6,7,8-tetrahydro[1,2,4]triazolo[1,5-a]pyridin-2-yl]-4-methoxy-1H-indole-5-carbonitrile], for which the 50% inhibitory concentration (IC50) in the test on Aβtotal [1] (setting [5]) came out at 3720 nM; in the test on Aβ42 [3] (setting [5]) it was 25 nM. Besides, the response vs control in vivo at 30 mg/kg is 55% with Aβ42 [2] and 86% in the test with Aβtotal [4].

For the compound `Cc1cc(F)ccc1C1CCCn2cc(-c3cc4cc(C#N)ccc4[nH]3)nc21` (stereo not shown) [Compound 63, 2-[8-(4-fluoro-2-methylphenyl)-5,6,7,8-tetrahydroimidazo[1,2-a]pyridin-2-yl]-1H-indole-5-carbonitrile], the IC50 in the test on Aβtotal [1] (setting [6]) is over 10000 nM; in the test with Aβ42 [3] (setting [6]), 4470 nM. Further, in the test with Aβ42 [2], the “Aβ42 (% vs Ctrl)_Mean” value is 121 % vs Ctrl. For the same compound, in the test on Aβtotal [4], the “Aβtotal (% vs Ctrl)_Mean” value is reported as 121 % vs Ctrl.

As for `Cc1cc(F)ccc1C1CCCn2cc(-c3cc4cc(C#N)ccc4[nH]3)nc21` (stereo not shown) [Compound 64, 2-[8-(4-fluoro-2-methylphenyl)-5,6,7,8-tetrahydroimidazo[1,2-a]pyridin-2-yl]-1H-indole-5-carbonitrile], the figures for the IC50 with Aβtotal [1] (setting [6]) and in the test with Aβ42 [3] (setting [6]) were over 10000 nM and 68 nM, respectively. Moreover, the “Aβ42 (% vs Ctrl)_Mean” value in the test on Aβ42 [2] is on record as 48 % vs Ctrl. Further, the “Aβtotal (% vs Ctrl)_Mean” value with Aβtotal [4] was 100 % vs Ctrl.

For `Cc1cn(-c2ccc3[nH]c(-c4nc5n(n4)CCCC5c4ccc(F)cc4C)cc3n2)cn1` (stereo not shown) [Compound 65, 8-(4-fluoro-2-methylphenyl)-5,6,7,8-tetrahydro-2-[5-(4-methyl-1H-imidazol-1-yl)-1H-pyrrolo[3,2-b]pyridin-2-yl]-[1,2,4]triazolo[1,5-a]pyridine], the IC50 in the test on Aβtotal [1] (setting [5]) stood at 7240 nM; in the test with Aβ42 [3] (setting [6]), 46 nM. Moreover, the values for the response vs control in vivo at 30 mg/kg with Aβ42 [2] and in the test with Aβtotal [4] were 82% and 108%, respectively.

Turning to `Cc1cc(F)ccc1C1CCCn2nc(-c3cc4nc(-c5cnn(C)c5)ccc4[nH]3)nc21` (stereo not shown) [Compound 69, 8-(4-fluoro-2-methylphenyl)-5,6,7,8-tetrahydro-2-[5-(1-methyl-1H-pyrazol-4-yl)-1H-pyrrolo[3,2-b]pyridin-2-yl]-[1,2,4]triazolo[1,5-a]pyridine], the half-maximal inhibitory concentration (IC50) was over 10000 nM with Aβtotal [1] (setting [6]) and 117 nM in the test on Aβ42 [3] (setting [6]). Further, the values for the response vs control in vivo at 30 mg/kg in the test on Aβ42 [2] and in the test on Aβtotal [4] were 83% and 122%, respectively.

On to `Cc1cn(-c2cc3cc(-c4nc5n(n4)CCCC5c4ccc(F)cc4C)[nH]c3cn2)cn1` (stereo not shown) [Compound 71, 8-(4-fluoro-2-methylphenyl)-5,6,7,8-tetrahydro-2-[5-(4-methyl-1H-imidazol-1-yl)-1H-pyrrolo[2,3-c]pyridin-2-yl]-[1,2,4]triazolo[1,5-a]pyridine], for which the IC50 in the test on Aβtotal [1] (setting [5]) was over 10000 nM; with Aβ42 [3] (setting [5]), 65 nM. The response vs control in vivo at 30 mg/kg in the test on Aβ42 [2] is 108%; in the test with Aβtotal [4] it was 115%.

`Cc1cn(-c2ccc3[nH]c(-c4nc5n(n4)CCCC5c4ccc(F)cc4C)cc3c2)cn1` (stereo not shown) [Compound 73, 8-(4-fluoro-2-methylphenyl)-5,6,7,8-tetrahydro-2-[5-(4-methyl-1H-imidazol-1-yl)-1H-indol-2-yl]-[1,2,4]triazolo[1,5-a]pyridine]: the IC50 is over 10000 nM in the test on Aβtotal [1] (setting [5]) and 43 nM with Aβ42 [3] (setting [5]). The response vs control in vivo at 30 mg/kg turned out to be 43% in the test on Aβ42 [2] and 80% in the test on Aβtotal [4].

In the case of `COc1c(C#N)ccc2[nH]c(-c3cn4c(n3)C(c3ccc(F)cc3C)CCC4)cc12` (stereo not shown) [Compound 74, 2-[8-(4-fluoro-2-methylphenyl)-5,6,7,8-tetrahydroimidazo[1,2-a]pyridin-2-yl]-4-methoxy-1H-indole-5-carbonitrile], the IC50 was over 10000 nM in the test with Aβtotal [1] (setting [5]) and 112 nM in the test with Aβ42 [3] (setting [5]). Moreover, the response vs control in vivo at 30 mg/kg turned out to be 49% in the test with Aβ42 [2] and 85% in the test with Aβtotal [4].

In the case of `COc1c(-c2cnn(C)c2)ccc2[nH]c(-c3cn4c(n3)C(c3ccc(F)cc3C)OCC4)cc12` (stereo not shown) [Compound 96, 8-(4-fluoro-2-methylphenyl)-5,6-dihydro-2-[4-methoxy-5-(1-methyl-1H-pyrazol-4-yl)-1H-indol-2-yl]-8H-imidazo[2,1-c][1,4]oxazine], the figures for the IC50 in the test with Aβtotal [1] (setting [5]) and with Aβ42 [3] (setting [5]) were over 10000 nM and 74 nM, respectively. The response vs control in vivo at 30 mg/kg came out at 55% with Aβ42 [2] and 92% with Aβtotal [4].

Take `Cc1cc(F)ccc1C1OCCn2cc(-c3cc4cc(-c5cnn(C)c5)ccc4[nH]3)nc21` (stereo not shown) [Compound 99, 8-(4-fluoro-2-methylphenyl)-5,6-dihydro-2-[5-(1-methyl-1H-pyrazol-4-yl)-1H-indol-2-yl]-8H-imidazo[2,1-c][1,4]oxazine]: the IC50 in the test on Aβtotal [1] (setting [5]) was over 10000 nM; in the test with Aβ42 [3] (setting [5]), 78 nM. Also, the values for the response vs control in vivo at 30 mg/kg in the test with Aβ42 [2] and in the test on Aβtotal [4] were 63% and 115%, respectively.

Turning to `COc1c(C#N)ccc2[nH]c(-c3nc4n(n3)CCOC4c3ccc(F)cc3C)cc12` (stereo not shown) [Compound 111, 2-[8-(4-fluoro-2-methylphenyl)-5,6-dihydro-8H-[1,2,4]triazolo[5,1-c][1,4]oxazin-2-yl]-4-methoxy-1H-indole-5-carbonitrile], the IC50 with Aβtotal [1] (setting [5]) was over 10000 nM; with Aβ42 [3] (setting [6]), 93 nM. The response vs control in vivo at 30 mg/kg with Aβ42 [2] worked out at 87%; in the test with Aβtotal [4] it was 120%.

In the case of `Cc1cn(-c2ccc3[nH]c(-c4nc5n(n4)CCCC5c4ccc(F)cc4C)nc3c2)cn1` (stereo not shown) [Compound 176, 8-(4-fluoro-2-methylphenyl)-5,6,7,8-tetrahydro-2-[5-(4-methyl-1H-imidazol-1-yl)-1H-benzimidazol-2-yl]-[1,2,4]triazolo[1,5-a]pyridine], the IC50 in the test with Aβtotal [1] (setting [6]) is over 10000 nM; in the test on Aβ42 [3] (setting [6]), 89 nM. In addition, the response vs control in vivo at 30 mg/kg was determined as 93% with Aβ42 [2] and 101% in the test on Aβtotal [4].

The record behind these values is patent US9115143B2, “Substituted indole derivatives as gamma secretase modulators” (Janssen Pharmaceuticals, Inc., priority 2011, dated 2015).
